Patent publication US6436917B1, “Non-estrogenic estradiol derivative compounds with anti-oxidative activity” (Jenapharm GmbH & Co. KG, priority 1997, dated 2002)

Experiments:
[1] = Fe(II) oxidation assay (inhibition of Fe(II)-autooxidation); format: biochemical; conditions: for FE(II)-AUTOXIDATION Inhibition, %: synaptosomal membrane/lipid fractions, 50 μM Fe(II) sulfate, pH 7.4, 10 min at 37° C., test concentration not given
Excerpt: The testing of the substances for Fe(II)-autooxidation inhibition activity occurs according to B. Ruiz-Larrea, et al, “Antioxidant effects of estradiol and 2-hydroxyestradiol on iron-induced lipid peroxidation of rat liver microsomes”, Steroids 39 (1994), pp. 383-388 and B. Ruiz-Larrea, et al, Effects of estrogens on the redox chemistry of iron: “A possible mechanism of the antioxidant action of estrogens”, Steroids 60 (1995), pp. 780-783.
All autooxidation experiments involving the Fe(II) ions were performed in aqueous solutions, which contain synaptosomal membrane/lipid fractions. A 1.0 ml biological sample containing 50 μM Fe(II) sulfate, 45 mM tris-HCl buffer (pH=7.4) and 0.08 mg of synaptosomal proteins were incubated with test substances dissolved in ethanol (10% v/v) for 10 min in a water bath at 37° C., subsequently stopped by addition of 50 μL of a 0.32 M 1,10-phenanthrolene solution and the extinction of Fe(II) phenanthroline complexes at 510 nm was measured.
All other biochemicals are of the highest analytical grade of purity. The test substances are preferably made in the form of a 20 millimolar stock solution in 95% ethanol and diluted immediately prior to the start of the experiment.

[2] = Fe(III) reduction assay (stimulation of Fe(III) reduction); format: biochemical; conditions: 25 μM Fe(III) chloride, tris-HCl pH 7.4; test concentration not given
Excerpt: The testing of the substances for their ability to stimulate Fe(III) reduction occurs according to B. Ruiz Larrea, et al, “Antioxidant effects of estradiol and 2-hydroxyestradiol on iron-induced lipid peroxidation of rat liver microsomes”, Steroids 39 (1994), p. 383-388 and B. Ruiz-Larrea, et al, Effects of estrogens on the redox chemistry of iron: A possible mechanism of the antioxidant action of estrogens”, Steroids 60 (1995), pp. 780 to 783.
The biological sample contained the following components: 25 μM Fe(III) chloride in 150 mM tris-HCl (pH=7.4), 15 mM 1,10-phenanthrolene and the substance to be tested, dissolved in an ethanol vehicle. The formation of the Fe(II) phenanthroline complex is registered spectrophotometrically at 510 nm.

[3] = test system: Synaptosomal membrane fractions (rat); conditions: for IC50: read-out: LIPID PEROXIDATION INHIBITION (IC50 μMol/l), synaptosomal membrane fractions (rat), 30 min at 37° C.; for antioxidative action in lipid peroxidation (in words): compared with 17α-estradiol and 17β-estradiol
[4] = test system: vaginal epithelium of ovariectomized rats; experiment: Allen-Doisy test, estrogenicity in vivo in ovariectomized rats (vaginal smears); set-up: species or system rat; conditions: one-time subcutaneous administration d1, ovariectomized rats
Description: Estrogens lead to characteristic changes in vaginal epithelium in ovariectomized rodents. The upper cells become heavily cornified and a strong proliferation occurs. These changes in cell formation were determined by vaginal smears. The occurrence of cornified anuclear epithelial cells is an expression of estrogen-specific activity (Allen-Doisy Test).
Subcutaneous Testing for Estrogen Activity
Estrogens lead to characteristic changes in vaginal epithelium with ovariectomized rodents. Strong proliferation and cornification of the upper cell layer occurs. These changes are detectable in cells from vaginal smears. The occurrence of cornified anuclear epithelial cells is an expression of an estrogen-specific activity—i.e. the Allen-Doisy Test—according to R. J. Dorfman, (Hrsg.), Methods in Hormone Research, p. 72 ff, Academic Press, New York, 1969.
White Wistar Rats (origin: Shoe: WIST=Mol : WIST, n=48) that weighed from 180 to 200 g were supplied, divided randomly into trial groups (n=3 to 5 animals/group), habituated in supporting conditions for about one week and subsequently ovariectomized under anesthesia with ursotami.
The test substances for subcutaneous and oral administration were formulated in benzyl benzoate/castor oil (1+4) or in polyoxyethylene(50-stearate) by Myrj® (85 mg polyoxyethylene(50-stearate) in 100 ml 0.9% w/v sodium chloride solution).
The administered volume amounted to 0.2 ml/animal.
Rats with a weight of about 200 g were ovariectomized under anesthesia with ursotami and about 2 weeks after that the animal was tested in the presence of a castrated vaginal cell formation (dioestrus). After that 0.2 ml per animal of the test substance was administered once subcutaneously. Vaginal smears were taken 24, 48, 54 and 72 hours after the one-time administration of the test substance and subsequent oestrus stages were evaluated(dioestrus=1; proestrus=2; oestrus=3; metoestrus=4). The experiment was ended after four days according to the standard ALLEN-DOISY test. The animals were sacrificed under anesthesia in ether by dislocation of the neck vertebral column, the uterus was prepared and its moist weight (without secretion) was measured. The suprarenal capsules were also prepared and weighed.
The results of the colpotropic test—the occurrences of oestral vaginal cell forms as reagents per doses group and the uteropic activity(uterus weight) were measured. The average of the uterus weight of the test groups was compared with the average of the vehicular groups and, if necessary, the significance of the differences was determined by a t-test according to STUDENT. The moist weight of the suprarenal capsules of all groups was also determined.

[5] = target: T1, estrogen receptor (Homo sapiens, UniProt P03372); experiment: Relative binding affinity to estrogen receptor sites; conditions: relative to 17β-estradiol = 100
T1 sequence (P03372 1-595): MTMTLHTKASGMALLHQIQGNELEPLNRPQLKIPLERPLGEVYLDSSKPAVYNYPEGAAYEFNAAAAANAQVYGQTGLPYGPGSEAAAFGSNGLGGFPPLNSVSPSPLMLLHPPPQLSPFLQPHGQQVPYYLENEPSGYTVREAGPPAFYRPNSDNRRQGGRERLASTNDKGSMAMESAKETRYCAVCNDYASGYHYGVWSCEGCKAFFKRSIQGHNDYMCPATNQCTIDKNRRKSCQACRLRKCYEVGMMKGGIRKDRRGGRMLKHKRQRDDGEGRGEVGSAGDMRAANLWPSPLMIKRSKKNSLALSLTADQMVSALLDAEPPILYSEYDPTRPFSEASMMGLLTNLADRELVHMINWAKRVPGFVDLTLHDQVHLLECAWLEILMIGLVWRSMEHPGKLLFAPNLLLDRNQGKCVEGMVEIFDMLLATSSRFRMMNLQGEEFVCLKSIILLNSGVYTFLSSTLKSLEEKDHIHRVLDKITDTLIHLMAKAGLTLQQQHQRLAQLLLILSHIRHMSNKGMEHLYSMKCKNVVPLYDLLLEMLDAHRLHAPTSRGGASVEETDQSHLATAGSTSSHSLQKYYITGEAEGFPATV

[6] = target: T1, estrogen receptor; conditions: background; natural 17β-estradiol = 100%; cited from earlier work
[7] = background statement; cited from earlier work

| Structure (SMILES) | FE(II)-AUTOXIDATION Inhibition, % [1] | FE(III)-REDUCTION Stimulation, % [2] | IC50 [3] | effect on the Fe(II)-autooxidation process (in words) [1] | also measured |
| --- | --- | --- | --- | --- | --- |
| C[C@]12CC[C@@H]3c4cc(O)c(O)cc4CC[C@H]3[C@@H]1CC[C@@H]2O [2-hydroxy-17β-estradiol] | 64.20% | 35.26% | – | – | – |
| C[C@]12CC[C@@H]3c4ccc(O)c(O)c4CC[C@H]3[C@@H]1CC[C@H]2O [4-hydroxy-17α-estradiol] | 59.51% | 32.71% | – | – | – |
| C[C@]12CC[C@@H]3c4ccc(O)cc4CC[C@H]3[C@@H]1CC[C@H]2O [17α-estradiol] | ≦1% | ≦1% | 8.9 µmol/L | do not or do not substantial change | Allen-Doisy Test, flaking, d1-d4 vaginal scale stage 3 (reagent/group) ([4]; 10 μg/animal): 0/6; Allen-Doisy Test, flaking, d1-d4 vaginal scale stage 3 (reagent/group) ([4]; 100 μg/animal): 6/6 |
| C[C@]12CC[C@@H]3c4ccc(O)cc4CC[C@H]3[C@@H]1CC[C@@H]2O [17β-estradiol] | ≦1% | ≦1% | 12.4 µmol/L | do not or do not substantial change | Allen-Doisy Test, flaking, d1-d4 vaginal scale stage 3 (reagent/group) ([4]; 0.03 μg/animal): 1/5; Allen-Doisy Test, flaking, d1-d4 vaginal scale stage 3 (reagent/group) ([4]; 0.1 μg/animal): 5/5 |
| CN(C)c1ccc(CC2(O)CCC3C4CCc5cc(O)ccc5C4=CCC32C)cc1 (stereo not drawn) [J 844, 17α-4′-dimethylamino-phenylmethyl-estra-1,3,5(10),9(11)-tetraen-3,17-diol] | – | – | – | – | relative binding affinity (% binding to estrogen receptor) [5]: 0.7%; binding affinity to estrogen receptor sites [6]: less than 1% |
| COc1ccc2c(c1)CC[C@@H]1[C@@H]2CC[C@@]2(C)[C@H]1CC[C@@]2(O)Cc1ccc(N(C)C)cc1 [J 848, 3-methoxy-17α-4′-dimethylamino-phenylmethyl-estra-1,3,5(10)-trien-17-ol] | – | – | – | – | Allen-Doisy Test, flaking, d1-d4 vaginal scale stage 3 (reagent/group) ([4]; 30 μg/animal): 0/5; Allen-Doisy Test, flaking, d1-d4 vaginal scale stage 3 (reagent/group) ([4]; 300 μg/animal): 2/5; estrogen activity in vivo [7]: high estrogen activity |
| C[C@]12CC[C@H]3c4ccc(O)cc4CC[C@@H]3[C@H]1CC[C@H]2O [J 855, 8α, 9β, 14β-estra-1,3,5(10)-trien-3,17α-diol] | – | – | – | – | Allen-Doisy Test, flaking, d1-d4 vaginal scale stage 3 (reagent/group) ([4]; 1000 μg/animal): 5/5; Allen-Doisy Test, flaking, d1-d4 vaginal scale stage 3 (reagent/group) ([4]; 10000 μg/animal): 5/5 |
| Cc1ccc(O)c2c1CC[C@@H]1[C@@H]2CC[C@]2(C)[C@@H](O)CC[C@@H]12 [J 1178, 4-methyl-estra-1,3,5(10)-trien-1,17β-diol] | 22.26% | 19.23% | 1.7 µmol/L | have the ability to inhibit the Fe(II)-autooxidation process | antioxidative action in lipid peroxidation (in words) [3]: considerably stronger antioxidative action; Allen-Doisy Test, flaking, d1-d4 vaginal scale stage 3 (reagent/group) ([4]; 1000 μg/animal): 0/5; Allen-Doisy Test, flaking, d1-d4 vaginal scale stage 3 (reagent/group) ([4]; 10000 μg/animal): 1/5; relative binding affinity (% binding to estrogen receptor) [5]: 0.04% |
| Cc1ccc(O)c2c1CC[C@@H]1[C@@H]2CC[C@]2(C)[C@H](O)CC[C@@H]12 [J 1179, 4-methyl-estra-1,3,5(10)-trien-1,17α-diol] | 26.07% | 21.41% | 1.94 µmol/L | have the ability to inhibit the Fe(II)-autooxidation process | antioxidative action in lipid peroxidation (in words) [3]: considerably stronger antioxidative action; Allen-Doisy Test, flaking, d1-d4 vaginal scale stage 3 (reagent/group) ([4]; 10000 μg/animal): 0/5; relative binding affinity (% binding to estrogen receptor) [5]: <0.03% |
| Cc1cc(C(C)(C)C)c(O)c(C(C)(C)C)c1 [butyrohydroxytoluene (BHT), butyrohydroxytoluene] | – | – | 0.95 µmol/L | – | – |
| Cc1c(C)c2c(c(C)c1O)CC[C@@](C)(CCC[C@H](C)CCC[C@H](C)CCCC(C)C)O2 [α-tocopherol (Vitamin E), α-tocopherol] | – | – | 117 µmol/L | – | – |
